Results from patent US20070196421A1, “Soft tissue implants and drug combination compositions, and use thereof” (priority 2005, published 2007).
Where a name gives a salt, the structure may show the parent alone.

Legend:
E. coli UB1005 C498 = experiment: MIC by microtitre broth dilution; assay type: cell-based; settings: Gram−, wt, Mueller Hinton broth, 37° C., 24 h
Description: (§1) MIC assays were conducted essentially as described by Amsterdam, D. 1996, “Susceptibility testing of antimicrobials in liquid media”, p. 52-111, in Loman, V., ed. Antibiotics in laboratory medicine, 4th ed. Williams and Wilkins, Baltimore, Md.

S. epidermidis C621 = experiment: MIC by microtitre broth dilution; assay type: cell-based; settings: Gram+, wt, Mueller Hinton broth, 37° C., 24 h
Description: as §1

S. pyogenes C721 = experiment: MIC by microtitre broth dilution; assay type: cell-based; settings: Gram+, wt, Todd Hewitt broth, 37° C., 24 h
Description: as §1

[1] = test system: P. aeruginosa PAE/K799 H187; experiment: MIC by microtitre broth dilution; assay type: cell-based; settings: Gram−, wt, Mueller Hinton broth, 37° C., 24 h
Description: as §1

S. aureus ATCC25923 C622 = experiment: MIC by microtitre broth dilution; assay type: cell-based; settings: Gram+, wt, Mueller Hinton broth, 37° C., 24 h
Description: as §1

[2] = test system: K. pneumoniae ATCC13883 C238; experiment: MIC by microtitre broth dilution; assay type: cell-based; settings: Gram−, wt, Mueller Hinton broth, 37° C., 24 h
Description: as §1

[3] = test system: immunosuppressive agents, such as cyclosporine; experiment: potency of immunosuppressive agents (enhancer effect)
[4] = test system: carrageenan-induced paw edema; experiment: Rat carrageenan-induced paw edema model: paw swelling; assay type: in vivo; settings: local injection in paw at T-1 hr, Tmax = 6 hrs
Description: (§2) A dose-range finding study was performed to determine the anti-inflammatory activity of various ratios of methyl prednisolone acetate and amoxapine in a rat carrageenan-induced paw edema model. […] The molar ratio of methyl prednisolone acetate to amoxapine ranged from 1:1 to 1:300, using total doses of methyl prednisolone acetate of 0.01, 0.03 or 0.1 mg/kg.
(§3) The test agent (a combination of methyl prednisolone acetate and amoxapine), vehicle control, or reference agents (methyl prednisolone acetate, amoxapine, or Depo-Medrol®) were administered in the left hind foot pad of rats. After 60 minutes, paw edema was induced by injection of 100 μl of 1% carrageenan in the same foot pad. The paw volume was measured with a water displacement plethysmometer immediately prior to test agent injection (T−1h), at the time of carrageenan injection (T0h), and at T6h. Animals were euthanized by carbon dioxide inhalation. Paw tissue samples were collected and flash frozen in liquid nitrogen. Samples were assayed for TNF-α by enzyme-linked immunoassay (ELISA).

TNF-α = experiment: Rat carrageenan-induced paw edema model: TNF-α in paw tissue by ELISA; assay type: in vivo
Description: as §2, §3

[5] = test system: multiple drug-resistant strains of C. glabrata; experiment: antifungal activity against C. glabrata; assay type: cell-based; settings: antifungal agent used in combination with the manganese compound
[6] = cited from earlier work; for solubility in alcohol / ethanol (in words): alcohol or ethanol
JNK = JNK activation; assay type: cell-based
[7] = test system: GRE reporter plasmid in T cells; experiment: transactivation of a transfected GRE reporter plasmid in T cells; assay type: cell-based
glucocorticoid receptor = glucocorticoid receptor trafficking (mechanism study); assay type: cell-based
p38 = p38 activation; assay type: cell-based
NFAT = NFAT activation, translocation and transactivation; assay type: cell-based
AP1 = AP1 activation; assay type: cell-based

Structure (SMILES) | Minimum inhibitory concentration (E. coli UB1005 C498) | Minimum inhibitory concentration (S. epidermidis C621) | Minimum inhibitory concentration (S. pyogenes C721) | Minimum inhibitory concentration [1] | Minimum inhibitory concentration (S. aureus ATCC25923 C622) | Minimum inhibitory concentration [2] | further results
COc1cc([C@@H]2c3cc4c(cc3[C@@H](O[C@@H]3O[C@@H]5CO[C@@H](C)O[C@H]5[C@H](O)[C@H]3O)[C@H]3COC(=O)[C@H]23)OCO4)cc(OC)c1O [etoposide] | N | 10^−6 Molar | 10^−5 Molar | N | 10^−5 Molar | 10^−5 Molar | 
Nc1ccn([C@@H]2O[C@H](CO)[C@@H](O)[C@@H]2O)c(=O)n1 [Cytarabine, cytarabine] | N | N | N | N | N | N | 
Sc1ncnc2nc[nH]c12 [6-mercaptopurine] | N | N | N | N | N | N | 
CN(C)C(=O)C(CCN1CCC(O)(c2ccc(Cl)cc2)CC1)(c1ccccc1)c1ccccc1 [Loperamide] |  |  |  |  |  |  | effect on the potency of immunosuppressive agents [3]: increase the potency
O=c1[nH]cc(F)c(=O)[nH]1 [5-fluorouracil, 5-FU] | 10^−6 Molar | 10^−7 Molar | 10^−4 Molar | 10^−5 Molar | 10^−7 Molar | 10^−6 Molar | 
Sc1ncc2[nH]cnc2n1 [2-mercaptopurine] | N | N | N | N | N | N | 
CC(=O)OCC(=O)[C@@]1(O)CC[C@H]2[C@@H]3C[C@H](C)C4=CC(=O)C=C[C@]4(C)[C@H]3[C@@H](O)C[C@@]21C [MePredAc, methyl prednisolone acetate] |  |  |  |  |  |  | Edema ± SEM ([4]; 0.01 mg/kg): 32.6 ± 5.3%; Edema ± SEM ([4]; 0.03 mg/kg): 26.2 ± 7.0%; Edema ± SEM ([4]; 0.1 mg/kg): 12.2 ± 1.8%; TNF-α ± SEM (TNF-α; 0.01 mg/kg): 35.9 ± 11.3 pg/g; TNF-α ± SEM (TNF-α; 0.03 mg/kg): 19.2 ± 3.1 pg/g; TNF-α ± SEM (TNF-α; 0.1 mg/kg): 28.0 ± 6.0 pg/g
Oc1cc(Cl)ccc1Oc1ccc(Cl)cc1Cl [triclosan, Triclosan] |  |  |  |  |  |  | effect on the potency of immunosuppressive agents [3]: increases the potency
OC(Cn1cncn1)(Cn1cncn1)c1ccc(F)cc1F [fluconazole] |  |  |  |  |  |  | enhancement of antifungal activity by the manganese compound [5]: enhances
CN(Cc1cnc2nc(N)nc(N)c2n1)c1ccc(C(=O)N[C@@H](CCC(=O)O)C(=O)O)cc1 [methotrexate] | N | N | 10^−6 Molar | N | 10^−5 Molar | 10^−6 Molar | 
Nc1ccc(/N=N\c2ccccc2)c(N)n1 [phenazopyridine-HCl] |  |  |  |  |  |  | solubility in water (in words) [6]: slightly soluble
Nc1ncnc2c1ccn2[C@@H]1O[C@H](CO)[C@@H](O)[C@H]1O [tubercidin] | N | N | N | N | N | N | 
Nc1ccc(/N=N/c2ccccc2)c(N)n1 [Phenazopyridine base, phenazopyridine] |  |  |  |  |  |  | solubility in alcohol / ethanol (in words) [6]: slightly soluble; solubility in water (in words) [6]: slightly soluble
CCN(CC)C(C)CN1c2ccccc2Sc2ccccc21 (stereo not drawn) [Ethopropazine, ethopropazine] |  |  |  |  |  |  | effect on the potency of immunosuppressive agents [3]: increases the potency
CC[C@H](C)C[C@H](C)CCCCCCCCC(=O)N[C@H]1C[C@@H](O)[C@@H](NCCN)NC(=O)[C@@H]2[C@@H](O)CCN2C(=O)[C@H]([C@H](O)CCN)NC(=O)[C@H]([C@H](O)[C@@H](O)c2ccc(O)cc2)NC(=O)[C@@H]2C[C@@H](O)CN2C(=O)[C@H]([C@@H](C)O)NC1=O [caspofungin] |  |  |  |  |  |  | enhancement of antifungal activity by the manganese compound [5]: enhances
CCC(C)n1ncn(-c2ccc(N3CCN(c4ccc(OC[C@H]5CO[C@](Cn6cncn6)(c6ccc(Cl)cc6Cl)O5)cc4)CC3)cc2)c1=O (mixture of isomers) [itraconazole] |  |  |  |  |  |  | enhancement of antifungal activity by the manganese compound [5]: enhances
CC[C@@]1(O)C(=O)OCc2c1cc1n(c2=O)Cc2cc3ccccc3nc2-1 [camptothecin, camptothecins] | N | 10^−4 Molar | N | N | N | N | 
NC(=O)NO [hydroxyurea] | N | N | 10^−4 Molar | 10^−4 Molar | N | N | 
NC(=O)c1ncn([C@@H]2O[C@H](CO)[C@@H](O)[C@H]2O)n1 [Ribavirin, ribavirin] |  |  |  |  |  |  | solubility in alcohol / ethanol (in words) [6]: slightly soluble
CN(C/C=C/C#CC(C)(C)C)Cc1cccc2ccccc12.Cl [terbinafine, terbinafine hydrochloride] |  |  |  |  |  |  | enhancement of antifungal activity by the manganese compound [5]: enhances
N.N.[Cl][Pt][Cl] [cisplatin] | N | N | N | 10^−4 Molar | N | N | 
O=C1c2c(O)ccc(O)c2C(=O)c2c(NCCNCCO)ccc(NCCNCCO)c21 [mitoxantrone] | 10^−5 Molar | 10^−5 Molar | 10^−6 Molar | 10^−5 Molar | 10^−5 Molar | 10^−6 Molar | 
CNCCCC12CCC(c3ccccc31)c1ccccc12 [maprotiline, Maprotiline] |  |  |  |  |  |  | effect on the potency of immunosuppressive agents [3]: increases the potency
Fc1ccc([C@@H]2CCNC[C@H]2COc2ccc3c(c2)OCO3)cc1 [paroxetine] |  |  |  |  |  |  | JNK activation (JNK): inhibition; potentiation of prednisolone's ability to transactivate a GRE reporter plasmid [7]: does not promote glucocorticoid receptor trafficking or potentiate; glucocorticoid receptor trafficking (glucocorticoid receptor): does not promote; p38 activation (p38): inhibition; NFAT activation, translocation and transactivation (NFAT): represses; AP1 activation (AP1): inhibits
COc1cccc2c1C(=O)c1c(O)c3c(c(O)c1C2=O)C[C@@](O)(C(=O)CO)C[C@@H]3O[C@H]1C[C@H](N)[C@H](O)[C@H](C)O1 [doxorubicin] | 10^−4 Molar | 10^−6 Molar | 10^−7 Molar | 10^−5 Molar | 10^−5 Molar | 10^−6 Molar | 
